Data as given in publication PMC4490784, “Compensatory induction of MYC expression by sustained CDK9 inhibition via a BRD4-dependent mechanism” (eLife, 2015).

Experiments:
Experiment in all cases: KINOMEscan binding assay
[1] = target: T1, ABL1(E255K)-phosphorylated (Homo sapiens, UniProt P00519, E255K); conditions: 1 µM i-CDK9; read-out: % Retention on Solid Support
T1 construct: purchased DiscoveRx KINOMEscan
Description: (§1) As there are no commercial or in-house kinase assays available for CDK3, CDK5, CDK11 and CDK13, the inhibitory abilities of i-CDK9 toward these CDKs were thus evaluated in the DiscoveRx KINOMEscan assay, which is based on a proprietary active site-directed competition-binding platform ([Fabian et al., 2005]).
(§2) The inhibitory activity of i-CDK9 for CDK1-CycB (Upstate/Millipore), CDK2-CycA (Invitrogen), CDK4-CycD1 (Novartis), CDK7-CycH-MAT1 (Invitrogen), and CDK9-CycT1 (Invitrogen) was assessed in the AlphaScreen (PerkinElmer, Inc)-based kinase assay developed at Novartis. Briefly, each CDK–cyclin pair was pre-incubated with i-CDK9 for 15 min, followed by addition of kinase substrates (ELK for CDK1 and CDK2, RB for CDK4, and CDK7tide for CDK7 and CDK9). The mixture was incubated at room temperature for additional 4–5 hr. The reaction was stopped and read on Envision (PerkinElmer, Inc). Selectivity against a large panel of over 400 kinases was evaluated using the KINOMEscan platform (DiscoveRx, CA) employing a proprietary active site-directed competition binding assay ([Fabian et al., 2005]). The assay was conducted at two different concentrations of i-CDK9 (1 and 10 µM) by DiscoveRx.

[2] = target: T2, AKT3 (Homo sapiens, UniProt Q9Y243); conditions: read-out: % Retention on Solid Support
T2 construct: purchased DiscoveRx KINOMEscan
Description: as §1, §2

[3] = target: T3, AURKC (Homo sapiens, UniProt Q9UQB9); conditions: read-out: % Retention on Solid Support
T3 construct: purchased DiscoveRx KINOMEscan
Description: as §1, §2

[4] = target: T4, CDC2L5 (Homo sapiens, UniProt Q14004); conditions: 1 µM i-CDK9
T4 construct: purchased DiscoveRx KINOMEscan
Description: as §1, §2

[5] = target: T5, CDKL1 (Homo sapiens, UniProt Q00532); conditions: 1 µM i-CDK9; read-out: % Retention on Solid Support
T5 construct: purchased DiscoveRx KINOMEscan
Description: as §1, §2

[6] = target: T6, EPHA3 (Homo sapiens, UniProt P29320); conditions: read-out: % Retention on Solid Support
T6 construct: purchased DiscoveRx KINOMEscan
Description: as §1, §2

[7] = target: T7, EPHA4 (Homo sapiens, UniProt P54764); conditions: read-out: % Retention on Solid Support
T7 construct: purchased DiscoveRx KINOMEscan
Description: as §1, §2

[8] = target: T8, EPHB6 (Homo sapiens, UniProt O15197); conditions: read-out: % Retention on Solid Support
T8 construct: purchased DiscoveRx KINOMEscan
T8 sequence (O15197 32-1021): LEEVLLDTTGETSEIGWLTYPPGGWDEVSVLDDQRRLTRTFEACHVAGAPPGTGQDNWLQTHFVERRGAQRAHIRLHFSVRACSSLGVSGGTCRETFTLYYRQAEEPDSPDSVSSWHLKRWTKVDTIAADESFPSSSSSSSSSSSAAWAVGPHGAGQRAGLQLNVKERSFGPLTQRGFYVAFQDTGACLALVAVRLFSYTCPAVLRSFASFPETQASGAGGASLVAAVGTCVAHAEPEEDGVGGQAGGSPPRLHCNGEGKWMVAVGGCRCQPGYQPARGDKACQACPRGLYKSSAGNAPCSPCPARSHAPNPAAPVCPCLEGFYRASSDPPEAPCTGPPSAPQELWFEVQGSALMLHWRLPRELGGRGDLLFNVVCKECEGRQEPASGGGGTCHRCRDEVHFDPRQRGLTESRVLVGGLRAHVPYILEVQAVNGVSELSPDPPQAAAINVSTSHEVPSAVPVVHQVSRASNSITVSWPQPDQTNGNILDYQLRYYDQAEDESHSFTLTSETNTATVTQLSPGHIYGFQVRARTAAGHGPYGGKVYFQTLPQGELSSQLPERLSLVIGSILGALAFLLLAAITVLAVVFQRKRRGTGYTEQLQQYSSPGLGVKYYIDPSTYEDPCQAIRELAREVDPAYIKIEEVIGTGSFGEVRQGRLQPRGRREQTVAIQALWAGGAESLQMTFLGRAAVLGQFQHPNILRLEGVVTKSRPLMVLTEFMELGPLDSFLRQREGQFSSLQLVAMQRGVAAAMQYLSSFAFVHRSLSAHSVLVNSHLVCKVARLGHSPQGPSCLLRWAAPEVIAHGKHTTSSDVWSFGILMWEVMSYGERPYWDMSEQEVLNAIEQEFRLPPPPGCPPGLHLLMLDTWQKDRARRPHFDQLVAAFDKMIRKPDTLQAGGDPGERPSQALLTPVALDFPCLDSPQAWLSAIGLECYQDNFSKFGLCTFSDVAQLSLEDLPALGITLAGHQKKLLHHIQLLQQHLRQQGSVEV
Description: as §1, §2

[9] = target: T9, FLT1 (Homo sapiens, UniProt P17948); conditions: read-out: % Retention on Solid Support
T9 construct: purchased DiscoveRx KINOMEscan
Description: as §1, §2

[10] = target: T10, ICK (Homo sapiens, UniProt Q9UPZ9); conditions: read-out: % Retention on Solid Support
T10 construct: purchased DiscoveRx KINOMEscan
T10 sequence (Q9UPZ9 whole entry): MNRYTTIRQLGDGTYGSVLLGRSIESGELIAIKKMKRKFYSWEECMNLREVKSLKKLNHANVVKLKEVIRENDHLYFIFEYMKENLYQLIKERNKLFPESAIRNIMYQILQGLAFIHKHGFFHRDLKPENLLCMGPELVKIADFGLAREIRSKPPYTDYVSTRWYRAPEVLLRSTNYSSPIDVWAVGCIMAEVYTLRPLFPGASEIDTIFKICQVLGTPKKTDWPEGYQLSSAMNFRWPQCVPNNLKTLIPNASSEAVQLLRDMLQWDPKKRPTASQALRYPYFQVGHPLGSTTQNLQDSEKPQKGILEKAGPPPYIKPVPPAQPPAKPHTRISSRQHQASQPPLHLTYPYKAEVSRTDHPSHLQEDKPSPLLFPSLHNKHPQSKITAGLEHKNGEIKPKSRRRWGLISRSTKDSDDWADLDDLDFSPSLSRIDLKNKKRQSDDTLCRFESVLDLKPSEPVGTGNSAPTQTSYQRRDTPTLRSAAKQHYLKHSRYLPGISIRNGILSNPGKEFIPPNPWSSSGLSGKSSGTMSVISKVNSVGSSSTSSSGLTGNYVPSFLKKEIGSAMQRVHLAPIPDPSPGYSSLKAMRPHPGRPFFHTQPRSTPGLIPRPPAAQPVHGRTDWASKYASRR
Description: as §1, §2

[11] = target: T11, ITK (Homo sapiens, UniProt Q08881)
T11 construct: purchased DiscoveRx KINOMEscan
Description: as §1, §2

[12] = target: T12, JNK2 (Homo sapiens, UniProt P45984)
T12 construct: purchased DiscoveRx KINOMEscan
Description: as §1, §2

[13] = target: T13, KIT(D816V) (Homo sapiens, UniProt P10721, D816V); conditions: read-out: % Retention on Solid Support
T13 construct: purchased DiscoveRx KINOMEscan
Description: as §1, §2

[14] = target: T14, KIT(L576P) (Homo sapiens, UniProt P10721, L576P); conditions: read-out: % Retention on Solid Support
T14 construct: purchased DiscoveRx KINOMEscan
Description: as §1, §2

[15] = target: T15, MAP3K15 (Homo sapiens, UniProt Q6ZN16); conditions: read-out: % Retention on Solid Support
T15 construct: purchased DiscoveRx KINOMEscan
T15 sequence (Q6ZN16 whole entry): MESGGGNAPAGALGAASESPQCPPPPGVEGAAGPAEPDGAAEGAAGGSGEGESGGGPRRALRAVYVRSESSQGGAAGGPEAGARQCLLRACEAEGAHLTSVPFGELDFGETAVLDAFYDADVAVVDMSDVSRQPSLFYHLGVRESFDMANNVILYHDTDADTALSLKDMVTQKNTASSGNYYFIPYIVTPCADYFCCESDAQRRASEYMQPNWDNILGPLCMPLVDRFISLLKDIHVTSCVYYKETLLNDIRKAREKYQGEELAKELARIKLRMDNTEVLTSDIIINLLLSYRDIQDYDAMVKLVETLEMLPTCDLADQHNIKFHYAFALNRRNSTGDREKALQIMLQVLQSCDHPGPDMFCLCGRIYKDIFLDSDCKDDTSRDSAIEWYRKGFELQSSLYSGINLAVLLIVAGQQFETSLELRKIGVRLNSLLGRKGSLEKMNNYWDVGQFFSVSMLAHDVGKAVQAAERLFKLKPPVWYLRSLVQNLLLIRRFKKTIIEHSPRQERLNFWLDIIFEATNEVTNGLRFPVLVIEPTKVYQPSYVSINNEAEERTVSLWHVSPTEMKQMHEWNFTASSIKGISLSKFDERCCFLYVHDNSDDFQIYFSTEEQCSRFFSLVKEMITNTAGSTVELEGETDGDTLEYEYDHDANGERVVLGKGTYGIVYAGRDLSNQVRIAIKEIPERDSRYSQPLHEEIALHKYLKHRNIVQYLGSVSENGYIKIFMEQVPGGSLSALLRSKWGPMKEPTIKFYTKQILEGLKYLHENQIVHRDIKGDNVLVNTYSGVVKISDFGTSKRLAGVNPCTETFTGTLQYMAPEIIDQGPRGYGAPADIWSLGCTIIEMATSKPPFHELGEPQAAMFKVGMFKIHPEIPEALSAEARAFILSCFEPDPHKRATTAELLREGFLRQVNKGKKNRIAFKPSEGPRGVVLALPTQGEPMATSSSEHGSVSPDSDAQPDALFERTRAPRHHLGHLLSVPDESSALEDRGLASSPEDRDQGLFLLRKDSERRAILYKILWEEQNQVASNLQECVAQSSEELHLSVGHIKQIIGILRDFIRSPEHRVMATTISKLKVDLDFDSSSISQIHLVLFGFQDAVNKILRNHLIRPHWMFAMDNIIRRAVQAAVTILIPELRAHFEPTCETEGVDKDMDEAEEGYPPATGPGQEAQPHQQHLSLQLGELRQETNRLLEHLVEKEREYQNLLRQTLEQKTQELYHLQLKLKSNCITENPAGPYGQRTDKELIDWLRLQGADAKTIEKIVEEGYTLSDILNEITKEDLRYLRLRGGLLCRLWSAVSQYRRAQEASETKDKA
Description: as §1, §2

[16] = target: T16, MARK2 (Homo sapiens, UniProt Q7KZI7); conditions: read-out: % Retention on Solid Support
T16 construct: purchased DiscoveRx KINOMEscan
Description: as §1, §2

[17] = target: T17, MEK2 (Homo sapiens, UniProt P36507); conditions: read-out: % Retention on Solid Support
T17 construct: purchased DiscoveRx KINOMEscan
Description: as §1, §2

[18] = target: T18, NEK11 (Homo sapiens, UniProt Q8NG66); conditions: 1 µM i-CDK9; read-out: % Retention on Solid Support
T18 construct: purchased DiscoveRx KINOMEscan
Description: as §1, §2

[19] = target: T19, PAK4 (Homo sapiens, UniProt O96013); conditions: read-out: % Retention on Solid Support
T19 construct: purchased DiscoveRx KINOMEscan
Description: as §1, §2

[20] = target: T20, PIK3C2B (Homo sapiens, UniProt O00750); conditions: read-out: % Retention on Solid Support
T20 construct: purchased DiscoveRx KINOMEscan
Description: as §1, §2

[21] = target: T21, PIK4CB (Homo sapiens, UniProt Q9UBF8); conditions: read-out: % Retention on Solid Support
T21 construct: purchased DiscoveRx KINOMEscan
T21 sequence (Q9UBF8 whole entry): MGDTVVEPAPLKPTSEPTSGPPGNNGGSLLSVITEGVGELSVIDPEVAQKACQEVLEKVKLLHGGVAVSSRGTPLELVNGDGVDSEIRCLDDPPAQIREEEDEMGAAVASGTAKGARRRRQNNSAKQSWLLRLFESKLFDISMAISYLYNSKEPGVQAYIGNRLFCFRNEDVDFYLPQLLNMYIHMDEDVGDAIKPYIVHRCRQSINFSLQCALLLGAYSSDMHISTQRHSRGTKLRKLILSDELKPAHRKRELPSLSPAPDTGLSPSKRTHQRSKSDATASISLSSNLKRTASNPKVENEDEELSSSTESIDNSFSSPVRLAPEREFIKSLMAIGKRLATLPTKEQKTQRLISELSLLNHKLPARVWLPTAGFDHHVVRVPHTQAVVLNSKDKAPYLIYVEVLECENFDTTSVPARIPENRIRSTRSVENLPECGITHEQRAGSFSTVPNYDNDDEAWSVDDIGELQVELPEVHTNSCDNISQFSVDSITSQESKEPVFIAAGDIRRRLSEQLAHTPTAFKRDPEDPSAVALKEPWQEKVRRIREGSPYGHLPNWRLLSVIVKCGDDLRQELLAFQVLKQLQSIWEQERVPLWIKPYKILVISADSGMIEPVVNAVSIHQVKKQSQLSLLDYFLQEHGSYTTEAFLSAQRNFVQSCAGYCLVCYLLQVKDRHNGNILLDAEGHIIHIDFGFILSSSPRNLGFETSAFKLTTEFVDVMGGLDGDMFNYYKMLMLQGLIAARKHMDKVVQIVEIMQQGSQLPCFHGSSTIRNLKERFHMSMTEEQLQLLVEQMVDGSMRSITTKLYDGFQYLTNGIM
Description: as §1, §2

[22] = target: T22, PIP5K2B (Homo sapiens, UniProt P78356); conditions: read-out: % Retention on Solid Support
T22 construct: purchased DiscoveRx KINOMEscan
Description: as §1, §2

[23] = target: T23, PRKG1 (Homo sapiens, UniProt Q13976); conditions: read-out: % Retention on Solid Support
T23 construct: purchased DiscoveRx KINOMEscan
Description: as §1, §2

[24] = target: T24, PRKR (Homo sapiens, UniProt P19525)
T24 construct: purchased DiscoveRx KINOMEscan
Description: as §1, §2

[25] = target: T25, SRMS (Homo sapiens, UniProt Q9H3Y6); conditions: read-out: % Retention on Solid Support
T25 construct: purchased DiscoveRx KINOMEscan
Description: as §1, §2

[26] = target: T26, STK16 (Homo sapiens, UniProt O75716); conditions: read-out: % Retention on Solid Support
T26 construct: purchased DiscoveRx KINOMEscan
T26 sequence (O75716 whole entry): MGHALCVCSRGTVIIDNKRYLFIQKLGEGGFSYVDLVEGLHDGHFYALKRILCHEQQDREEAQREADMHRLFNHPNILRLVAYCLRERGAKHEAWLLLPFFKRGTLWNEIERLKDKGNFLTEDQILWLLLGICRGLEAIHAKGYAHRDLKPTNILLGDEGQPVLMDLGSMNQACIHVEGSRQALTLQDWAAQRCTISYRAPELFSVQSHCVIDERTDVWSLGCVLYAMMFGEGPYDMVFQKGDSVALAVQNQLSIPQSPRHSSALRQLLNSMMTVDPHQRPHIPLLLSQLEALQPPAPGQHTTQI
Description: as §1, §2

[27] = target: T27, STK35 (Homo sapiens, UniProt Q8TDR2); conditions: read-out: % Retention on Solid Support
T27 construct: purchased DiscoveRx KINOMEscan
Description: as §1, §2

[28] = target: T28, TGFBR1 (Homo sapiens, UniProt P36897); conditions: read-out: % Retention on Solid Support
T28 construct: purchased DiscoveRx KINOMEscan
T28 sequence (P36897 34-503): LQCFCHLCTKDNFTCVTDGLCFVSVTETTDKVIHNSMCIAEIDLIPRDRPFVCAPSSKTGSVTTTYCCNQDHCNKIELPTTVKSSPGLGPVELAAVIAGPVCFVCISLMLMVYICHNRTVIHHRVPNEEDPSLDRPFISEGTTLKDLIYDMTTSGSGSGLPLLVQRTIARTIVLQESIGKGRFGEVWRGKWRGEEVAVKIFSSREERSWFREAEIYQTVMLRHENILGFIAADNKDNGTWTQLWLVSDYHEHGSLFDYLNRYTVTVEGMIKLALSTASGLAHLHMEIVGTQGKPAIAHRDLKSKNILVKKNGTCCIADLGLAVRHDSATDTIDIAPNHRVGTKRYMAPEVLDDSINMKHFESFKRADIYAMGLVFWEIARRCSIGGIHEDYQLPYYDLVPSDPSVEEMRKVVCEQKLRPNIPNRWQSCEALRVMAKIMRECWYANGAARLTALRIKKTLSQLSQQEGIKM
Description: as §1, §2

[29] = target: T29, WEE2 (Homo sapiens, UniProt P0C1S8); conditions: read-out: % Retention on Solid Support
T29 construct: purchased DiscoveRx KINOMEscan
Description: as §1, §2

[30] = target: T30, YSK1 (Homo sapiens, UniProt O00506); conditions: read-out: % Retention on Solid Support
T30 construct: purchased DiscoveRx KINOMEscan
T30 sequence (O00506 whole entry): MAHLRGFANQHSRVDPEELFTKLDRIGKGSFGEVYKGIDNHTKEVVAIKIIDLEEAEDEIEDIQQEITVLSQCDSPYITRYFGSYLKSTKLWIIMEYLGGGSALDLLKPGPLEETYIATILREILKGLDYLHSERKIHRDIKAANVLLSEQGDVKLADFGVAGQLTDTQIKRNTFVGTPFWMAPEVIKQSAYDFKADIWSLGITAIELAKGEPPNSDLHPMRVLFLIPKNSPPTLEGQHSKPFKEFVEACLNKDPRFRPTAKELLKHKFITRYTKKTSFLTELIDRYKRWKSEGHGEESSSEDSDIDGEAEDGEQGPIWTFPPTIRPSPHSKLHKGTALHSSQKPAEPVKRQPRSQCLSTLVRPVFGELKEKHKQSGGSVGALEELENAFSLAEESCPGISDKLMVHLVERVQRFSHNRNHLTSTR
Description: as §1, §2

SMILES: N[C@H]1CC[C@H](Nc2cc(-c3cccc(NCc4cccc(F)c4)n3)c(Cl)cn2)CC1 [i-CDK9, N2′-(trans-4-aminocyclohexyl)-5′-chloro-N6-(3-fluorobenzyl)-2,4′-bipyridine-2′,6-diamine]
- remaining binding at 1 µM [1]: 74%
- remaining binding at 1 µM ([2]; 1 µM i-CDK9): 72%
- remaining binding at 10 µM ([2]; 10 µM i-CDK9): 87%
- remaining binding at 1 µM ([3]; 1 µM i-CDK9): 100%
- remaining binding at 10 µM ([3]; 10 µM i-CDK9): 71%
- % Retention on Solid Support [4]: 100%
- remaining binding at 1 µM [5]: 100%
- remaining binding at 1 µM ([6]; 1 µM i-CDK9): 85%
- remaining binding at 10 µM ([6]; 10 µM i-CDK9): 100%
- remaining binding at 1 µM ([7]; 1 µM i-CDK9): 100%
- remaining binding at 10 µM ([7]; 10 µM i-CDK9): 89%
- remaining binding at 1 µM ([8]; 1 µM i-CDK9): 47%
- remaining binding at 10 µM ([8]; 10 µM i-CDK9): 74%
- remaining binding at 1 µM ([9]; 1 µM i-CDK9): 100%
- remaining binding at 10 µM ([9]; 10 µM i-CDK9): 81%
- remaining binding at 1 µM ([10]; 1 µM i-CDK9): 85%
- remaining binding at 10 µM ([10]; 10 µM i-CDK9): 3%
- % Retention on Solid Support ([11]; 1 µM i-CDK9): 100%
- % Retention on Solid Support ([11]; 10 µM i-CDK9): 86%
- % Retention on Solid Support ([12]; 1 µM i-CDK9): 98%
- % Retention on Solid Support ([12]; 10 µM i-CDK9): 78%
- remaining binding at 1 µM ([13]; 1 µM i-CDK9): 100%
- remaining binding at 10 µM ([13]; 10 µM i-CDK9): 100%
- remaining binding at 1 µM ([14]; 1 µM i-CDK9): 91%
- remaining binding at 10 µM ([14]; 10 µM i-CDK9): 100%
- remaining binding at 1 µM ([15]; 1 µM i-CDK9): 100%
- remaining binding at 10 µM ([15]; 10 µM i-CDK9): 100%
- remaining binding at 1 µM ([16]; 1 µM i-CDK9): 76%
- remaining binding at 10 µM ([16]; 10 µM i-CDK9): 86%
- remaining binding at 1 µM ([17]; 1 µM i-CDK9): 96%
- remaining binding at 10 µM ([17]; 10 µM i-CDK9): 100%
- remaining binding at 1 µM [18]: 100%
- remaining binding at 1 µM ([19]; 1 µM i-CDK9): 100%
- remaining binding at 10 µM ([19]; 10 µM i-CDK9): 100%
- remaining binding at 1 µM ([20]; 1 µM i-CDK9): 100%
- remaining binding at 10 µM ([20]; 10 µM i-CDK9): 95%
- remaining binding at 1 µM ([21]; 1 µM i-CDK9): 29%
- remaining binding at 10 µM ([21]; 10 µM i-CDK9): 84%
- remaining binding at 1 µM ([22]; 1 µM i-CDK9): 100%
- remaining binding at 10 µM ([22]; 10 µM i-CDK9): 77%
- remaining binding at 1 µM ([23]; 1 µM i-CDK9): 81%
- remaining binding at 10 µM ([23]; 10 µM i-CDK9): 88%
- % Retention on Solid Support ([24]; 1 µM i-CDK9): 84%
- % Retention on Solid Support ([24]; 10 µM i-CDK9): 100%
- remaining binding at 1 µM ([25]; 1 µM i-CDK9): 99%
- remaining binding at 10 µM ([25]; 10 µM i-CDK9): 80%
- remaining binding at 1 µM ([26]; 1 µM i-CDK9): 95%
- remaining binding at 10 µM ([26]; 10 µM i-CDK9): 100%
- remaining binding at 1 µM ([27]; 1 µM i-CDK9): 100%
- remaining binding at 10 µM ([27]; 10 µM i-CDK9): 91%
- remaining binding at 1 µM ([28]; 1 µM i-CDK9): 95%
- remaining binding at 10 µM ([28]; 10 µM i-CDK9): 100%
- remaining binding at 1 µM ([29]; 1 µM i-CDK9): 100%
- remaining binding at 10 µM ([29]; 10 µM i-CDK9): 100%
- remaining binding at 1 µM ([30]; 1 µM i-CDK9): 98%
- remaining binding at 10 µM ([30]; 10 µM i-CDK9): 96%
